Measurements from patent publication US20060079453A1, “Hla binding peptides and their uses” (priority 2002, published 2006).
pIC50: −log10 of the molar value. No end group written: not given here.

What was measured:
Assay in all cases: biochemical
Format in all cases: binding
HLA-DR DRB1*0101 (DR1) = HLA-DR DRB1*0101 (DR1) (Homo sapiens, UniProt P01903+P01911, A100R/D57E/F55L/F60I/F76Y/I96L/L162R/M171V/P40L/Q125E/R42F/V115G/Y59C); conditions: DRB1 *0101
HLA-DR DRB1*0301 (DR3) = HLA-DR DRB1*0301 (DR3) (Homo sapiens, UniProt P01903+P01911, A100K/A102G/A103R/A169T/F55Y/I96L/K41T/L162R/M171V/P40S/Q125H/Q178H/Q39Y/R42S/S66N/T106N/T262R/W38E/Y61H)
Chain of HLA-DR DRB1*0301 (DR3) (P01903 26-254 limits assumed, other chains not shown): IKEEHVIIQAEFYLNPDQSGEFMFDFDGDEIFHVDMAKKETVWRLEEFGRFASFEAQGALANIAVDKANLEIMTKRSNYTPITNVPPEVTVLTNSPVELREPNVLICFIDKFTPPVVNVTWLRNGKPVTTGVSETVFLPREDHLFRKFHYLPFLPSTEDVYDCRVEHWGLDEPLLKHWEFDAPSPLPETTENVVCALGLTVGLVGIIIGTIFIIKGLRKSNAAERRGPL

HLA-DR DRB1*0701 (DR7) = HLA-DR DRB1*0701 (DR7) (Homo sapiens, UniProt P01903+P01911, A100R/A102G/A103Q/D57E/D86V/E43K/F76Y/K127E/L162R/M171V/P40G/Q125H/Q99D/R33Q/R42Y/R54Q/S133A/S66F/T210M/V115G/Y107V/Y59L/Y89S); conditions: DRB1 *0701
HLA-DR DRB1*0802 (DR8) = HLA-DR DRB1*0802 (DR8) (Homo sapiens, UniProt P01903+P01911, A100R/A103L/A169T/F76Y/H45Y/I96F/K41T/L162R/M171V/P40S/Q125H/Q178H/Q39Y/Q99D/R218S/R42G/S66Y/V115G/W38E)
HLA-DR DRB1*0901 (DR9) = HLA-DR DRB1*0901 (DR9) (Homo sapiens, UniProt P01903+P01911, A100R/A103E/D57H/D86V/F55Y/F60I/F76Y/I96F/K127E/L162R/M171V/P40D/Q125H/Q99R/R33Q/R42F/S133A/S66N/T210M/V115G/W38K/Y107V/Y59G/Y89S); conditions: DRB1 *0901
HLA-DR DRB1*1501 (DR15) = HLA-DR DRB1*1501 (DR15) (Homo sapiens, UniProt P01903+P01911); conditions: DRBI *1501
HLA-DR DRB3*0101 (DR52) = HLA-DR DRB3*0101 (DR52) (Homo sapiens, UniProt P01903+P79483)
HLA-DR DRB4*0101 (DR53) = HLA-DR DRB4*0101 (DR53) (Homo sapiens, UniProt P01903+P13762, G164S); conditions: DRB4 *0101
HLA-DR DRB5*0101 (DR51) = HLA-DR DRB5*0101 (DR51) (Homo sapiens, UniProt P01903+Q30154); conditions: DRB5 *0101
HLA-DR DRB1*0401 (DR4) = HLA-DR DRB1*0401 (DR4) (Homo sapiens, UniProt P01903+P01911, A100K/A169T/F76Y/I96L/K127E/L162R/M171V/N62H/P40V/Q125Y/R42H/S133A/S149N/S66Y/V115G/V209L/W38E); conditions: DRB1 *0401
HLA-DR DRB1*1101 (DR11) = HLA-DR DRB1*1101 (DR11) (Homo sapiens, UniProt P01903+P01911, A100R/A169T/A87E/I96F/K41T/L162R/M171V/P40S/Q125H/Q178H/Q39Y/Q99D/R42S/S66Y/T262R/V115G/W38E); conditions: DRB1 *1101
Chain of HLA-DR DRB1*1101 (DR11) (P01903 26-254 limits assumed, other chains not shown): as above

HLA-DR DRB1*1302 (DR13) = HLA-DR DRB1*1302 (DR13) (Homo sapiens, UniProt P01903+P01911, A100E/A169T/K41T/L162R/M171V/P40S/Q125H/Q178H/Q39Y/Q99D/R42S/S66N/T262R/V115G/W38E/Y61H); conditions: DRBI *1302
Chain of HLA-DR DRB1*1302 (DR13) (P01903 26-254 limits assumed, other chains not shown): as above

Compound	pIC50 (HLA-DR DRB1*0101 (DR1))	pIC50 (HLA-DR DRB1*0301 (DR3))	pIC50 (HLA-DR DRB1*0701 (DR7))	pIC50 (HLA-DR DRB1*0802 (DR8))	pIC50 (HLA-DR DRB1*0901 (DR9))	pIC50 (HLA-DR DRB1*1501 (DR15))	pIC50 (HLA-DR DRB3*0101 (DR52))	pIC50 (HLA-DR DRB4*0101 (DR53))	pIC50 (HLA-DR DRB5*0101 (DR51))	pIC50 (HLA-DR DRB1*0401 (DR4))	pIC50 (HLA-DR DRB1*1101 (DR11))	pIC50 (HLA-DR DRB1*1302 (DR13))
CC[C@H](C)[C@H](NC(=O)[C@H](CO)NC(=O)[C@@H](NC(=O)CN)C(C)C)C(=O)N[C@@H](Cc1c[nH]c2ccccc12)C(=O)N[C@@H](CC(N)=O)C(=O)N1CCC[C@H]1C(=O)N[C@H](C(=O)N[C@@H](CC(C)C)C(=O)N[C@@H](CC(C)C)C(=O)N[C@@H](Cc1c[nH]c2ccccc12)C(=O)N[C@@H](CCC(N)=O)C(=O)N1CCC[C@H]1C(=O)N[C@H](C(=O)N1CCC[C@H]1C(=O)O)[C@@H](C)CC)[C@@H](C)CC	7.36	4.25	5.30	4.96	5.40	8.30	5.35	6.31	6.28	–	–	–
TSITSLYQLENYTG	–	4.01	5.08	4.84	4.33	–	4.03	5.78	4.79	5.79	5.99	< 4.77
CC[C@H](C)[C@H](NC(=O)CNC(=O)[C@H](Cc1ccc(O)cc1)NC(=O)[C@H](CC(C)C)NC(=O)[C@H](CO)NC(=O)[C@H](CC(C)C)NC(=O)[C@H](CC(C)C)NC(=O)[C@H](CO)NC(=O)[C@@H](N)CC(C)C)C(=O)N[C@@H](Cc1c[nH]cn1)C(=O)N[C@@H](CCCCN)C(=O)N[C@@H](CCC(N)=O)C(=O)N[C@@H](CCCCN)C(=O)N[C@@H](CCC(=O)O)C(=O)N[C@@H](CCCCN)C(=O)O	6.18	< 4.09	< 4.45	5.79	5.30	7.24	< 4.83	6.11	8.47	5.35	–	< 4.46
CSCC[C@H](NC(=O)CNC(=O)CNC(=O)[C@H](CCCNC(=N)N)NC(=O)[C@@H](NC(=O)[C@H](CCC(N)=O)NC(=O)[C@H](C)NC(=O)[C@@H](NC(=O)[C@@H](NC(=O)[C@H](CC(C)C)NC(=O)[C@H](Cc1c[nH]cn1)NC(=O)[C@H](Cc1ccc(O)cc1)NC(=O)[C@H](CCCCN)NC(=O)[C@H](Cc1ccccc1)NC(=O)[C@@H](N)CCSC)[C@@H](C)O)C(C)C)C(C)C)C(=O)O	7.80	4.54	7.14	7.15	6.58	5.92	5.44	–	8.24	7.74	–	5.79
CC(C)C[C@H](NC(=O)[C@@H](NC(=O)[C@H](CCC(=O)O)NC(=O)[C@H](C)NC(=O)[C@H](C)NC(=O)[C@H](C)NC(=O)[C@H](CCC(N)=O)NC(=O)[C@@H](NC(=O)[C@@H](NC(=O)[C@H](Cc1ccccc1)NC(=O)[C@H](C)NC(=O)[C@H](C)NC(=O)[C@@H](N)C(C)C)[C@@H](C)O)C(C)C)[C@@H](C)O)C(=O)N[C@@H](CO)C(=O)N[C@@H](CCC(=O)O)C(=O)O	7.85	< 4.12	6.10	5.85	6.90	4.74	5.67	6.33	6.42	7.24	–	–
EDFFKLERDMKINCS	5.57	6.33	5.07	5.84	< 4.28	< 5.46	5.39	5.10	5.46	6.65	–	5.50
CC(C)C[C@H](NC(=O)[C@H](CCC(=O)O)NC(=O)[C@H](CCCCN)NC(=O)[C@H](C)NC(=O)[C@H](CC(C)C)NC(=O)[C@@H](NC(=O)[C@H](CO)NC(=O)[C@H](CCCNC(=N)N)NC(=O)[C@H](CC(=O)O)NC(=O)[C@H](CC(C)C)NC(=O)[C@H](Cc1c[nH]c2ccccc12)NC(=O)[C@H](Cc1ccccc1)NC(=O)[C@H](Cc1ccccc1)NC(=O)[C@H](CC(C)C)NC(=O)[C@@H](N)CC(C)C)C(C)C)C(=O)O	8.54	8.20	–	6.79	6.29	7.47	7.07	8.12	–	8.59	–	7.62
KLKLYTGEATRTGDR	6.75	3.93	5.08	5.70	< 4.10	7.74	5.28	4.83	–	7.82	–	6.08
HPLYNMSLLKHQSLR	6.63	4.89	5.89	6.42	6.70	6.33	< 4.83	8.08	6.66	6.30	–	6.26
CC[C@H](C)[C@H](NC(=O)[C@@H](NC(=O)[C@@H](N)CO)C(C)C)C(=O)N[C@@H](CC(C)C)C(=O)N[C@@H](CC(C)C)C(=O)NCC(=O)N[C@@H](CCCNC(=N)N)C(=O)N[C@@H](Cc1c[nH]cn1)C(=O)N[C@@H](CO)C(=O)N[C@@H](CC(C)C)C(=O)N[C@@H](Cc1ccccc1)C(=O)N[C@@H](Cc1c[nH]cn1)C(=O)N1CCC[C@H]1C(=O)N[C@@H](CCC(=O)O)C(=O)N[C@@H](CC(=O)O)C(=O)O [SVILLGRHSLFHPED]	6.14	5.85	–	6.30	5.28	–	4.88	5.36	4.79	4.90	7.02	7.02
CC[C@H](C)[C@H](NC(=O)[C@H](CCC(N)=O)NC(=O)[C@@H](N)CCCNC(=N)N)C(=O)N[C@@H](Cc1ccc(O)cc1)C(=O)N[C@H](C(=O)N[C@@H](C)C(=O)N[C@@H](C)C(=O)N[C@@H](Cc1ccccc1)C(=O)N[C@H](C(=O)N[C@H](C(=O)N[C@@H](CCC(N)=O)C(=O)N[C@@H](C)C(=O)N[C@@H](C)C(=O)N[C@@H](C)C(=O)N[C@@H](CCC(=O)O)C(=O)O)C(C)C)[C@@H](C)O)C(C)C	8.43	4.55	–	7.44	7.04	–	5.17	7.33	–	8.92	7.46	6.28
